Test results from US20080096208A1, “BIOMARKERS FOR ASSESSING RESPONSE TO C-MET TREATMENT” (priority 2006, published 2008).

Tests used:
[1] = test system: PC-3 prostate carcinoma cells; assay: Taqman real-time PCR of marker mRNA levels in HGF-stimulated PC-3 cells; format: cell-based
Excerpt: In order to identify biomarkers for the HGF response and potential inhibition of this response by small molecule HGF receptor (c-met) inhibitors, a micro array analysis of PC-3 cells stimulated by HGF over a time course of 1 hr to 2 days was used. TAQMAN was employed to examine mRNA levels of VEGF, CD44, Fibronectin, and MMP-1, each of which has been shown by others to be induced by HGF. Briefly, RNA is isolated by lysis of cultured cells or homogenization of tumor tissue in a guanidine solution, Trireagent from Molecular Research Center, Inc. The RNA is purified by a Qiagen column methodology under conditions recommended by the manufacturer and DNAse treated. Specific levels of mRNAs for the indicated genes are determined by Real-Time PCR, Taqman analysis using probes and primers specific for the genes examined and purchased from Applied Biosystems and the SDS2.1 quantitation software. Quantitation is performed by comparison of the cycle number where the sample crosses a threshold value vs a standard curve made of a pool of the RNA samples. Normalization is performed by comparing the amount of specific mRNA to that of 18S RNA or GAPDH mRNA. […] This response was then evaluated upon administration of the c-met inhibitor, 3DP-669366. […] The kinetics of the induction and the amplitude of the mRNA levels differ between the cell lines examined. The micro-array analysis identified LDL Receptor 1 (LDL-R1) as another protein that is induced by HGF and whose level of expression is diminished by treatment of cells with a HGF receptor inhibitor. This analysis was then evaluated upon administration of the acylhydrazone series of c-met inhibitors, JNJ-28823184 and JNJ-38429274. In in vivo tumor xenografts, the biomarkers identified by examination of cell culture responses to c-met inhibitors are also modulated in the in vivo setting. In a U87MG tumor xenograft in nude mice, a decrease in the mRNA levels of CD44, VEGF, LDLR1, and Osteopontin was observed.

PC-3 cells = assay: Micro array analysis of PC-3 cells stimulated by HGF; format: cell-based
Excerpt: In order to identify biomarkers for the HGF response and potential inhibition of this response by small molecule HGF receptor (c-met) inhibitors, a micro array analysis of PC-3 cells stimulated by HGF over a time course of 1 hr to 2 days was used. TAQMAN was employed to examine mRNA levels of VEGF, CD44, Fibronectin, and MMP-1, each of which has been shown by others to be induced by HGF. Briefly, RNA is isolated by lysis of cultured cells or homogenization of tumor tissue in a guanidine solution, Trireagent from Molecular Research Center, Inc. The RNA is purified by a Qiagen column methodology under conditions recommended by the manufacturer and DNAse treated. Specific levels of mRNAs for the indicated genes are determined by Real-Time PCR, Taqman analysis using probes and primers specific for the genes examined and purchased from Applied Biosystems and the SDS2.1 quantitation software. Quantitation is performed by comparison of the cycle number where the sample crosses a threshold value vs a standard curve made of a pool of the RNA samples. Normalization is performed by comparing the amount of specific mRNA to that of 18S RNA or GAPDH mRNA. […] This response was then evaluated upon administration of the c-met inhibitor, 3DP-669366. […] This analysis was then evaluated upon administration of the acylhydrazone series of c-met inhibitors, JNJ-28823184 and JNJ-38429274. […]

[2] = between 8 and 48 hours following HGF addition, p<0.01

HGF: hepatocyte growth factor (also known as scatter factor), ligand of the c-met receptor
induction of Fibronectin mRNA by HGF [1]: did not show a statistically significant induction | induction of VEGF mRNA by HGF ([1]; between 8 and 48 hours following HGF addition, p<0.001): statistically significant induction | induction of CD44 mRNA by HGF [1, 2]: statistically significant induction | induction of MMP-1 mRNA by HGF [1, 2]: statistically significant induction | induction of LDL Receptor 1 (LDL-R1) by HGF (PC-3 cells): induced
